Patent publication US20250064941A1, “SIGLEC LIGANDS, CONJUGATES, AND METHODS OF USE THEREOF” (Osprey Biopharmaceuticals, Inc., priority 2023, published 2025)

What was measured:
[1] = molecular target: T1, mouse Siglec-2-Fc-Avi (CD22) (Mus musculus, UniProt P35329); test: SPR binding affinity to mouse CD22; conditions: steady-state analysis
T1 construct: made in house
T1 sequence (P35329 22-708 limits assumed): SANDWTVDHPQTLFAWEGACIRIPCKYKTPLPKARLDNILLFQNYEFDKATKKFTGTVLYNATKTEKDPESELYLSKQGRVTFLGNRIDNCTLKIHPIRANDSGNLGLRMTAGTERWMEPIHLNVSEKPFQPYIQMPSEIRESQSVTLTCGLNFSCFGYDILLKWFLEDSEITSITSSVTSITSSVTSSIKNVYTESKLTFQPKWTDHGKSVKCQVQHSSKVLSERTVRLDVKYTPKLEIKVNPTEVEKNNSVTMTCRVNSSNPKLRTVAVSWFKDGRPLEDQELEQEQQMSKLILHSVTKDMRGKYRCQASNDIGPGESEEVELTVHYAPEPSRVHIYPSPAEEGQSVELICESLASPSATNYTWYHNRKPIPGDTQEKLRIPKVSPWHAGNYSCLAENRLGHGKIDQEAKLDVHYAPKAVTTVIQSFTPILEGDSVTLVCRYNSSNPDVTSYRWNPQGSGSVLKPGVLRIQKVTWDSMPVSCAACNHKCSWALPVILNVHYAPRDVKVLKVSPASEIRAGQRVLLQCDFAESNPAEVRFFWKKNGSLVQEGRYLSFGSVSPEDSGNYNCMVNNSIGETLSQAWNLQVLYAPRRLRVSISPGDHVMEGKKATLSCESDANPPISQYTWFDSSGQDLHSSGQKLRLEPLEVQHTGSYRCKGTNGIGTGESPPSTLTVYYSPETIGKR
Experimental: (§1) Prior to immobilization, CD22 proteins were treated with SialoExo (Genovis, Cat #G1-SM1-020) for 4 hours at 37° C. to remove native sialic acid residues.
(§2) Capture of biotinylated CD22 constructs was performed using a Cytiva SA chip (BR100398) on a Biacore 8K instrument.
(§3) Binding experiments of Siglec-ligand conjugated proteins or Siglec ligand compounds were performed on the surfaces prepared above in 10 mM HEPES, 150 mM NaCl, 0.05% Tween-20, pH 7.5, 1% DMSO as the running buffer. […] The compounds were then allowed to dissociate from the surface for 120 seconds. […] Solvent correction was performed using 0.5, 1, 1.5, and 2% DMSO spike into running buffer without DMSO. […] Data was analyzed using steady-state analysis in Biacore Insight Evaluation Software, version 3.0 for Siglec ligand compounds.

[2] = molecular target: cynomolgus Siglec-2/CD22 (Macaca fascicularis, UniProt A0A2K5WCZ6); test: biochemical; type: binding; conditions: SPR, steady-state analysis; read-out: Affinity cyno CD22
cynomolgus Siglec-2/CD22, sequence (A0A2K5WCZ6 entry or part of it): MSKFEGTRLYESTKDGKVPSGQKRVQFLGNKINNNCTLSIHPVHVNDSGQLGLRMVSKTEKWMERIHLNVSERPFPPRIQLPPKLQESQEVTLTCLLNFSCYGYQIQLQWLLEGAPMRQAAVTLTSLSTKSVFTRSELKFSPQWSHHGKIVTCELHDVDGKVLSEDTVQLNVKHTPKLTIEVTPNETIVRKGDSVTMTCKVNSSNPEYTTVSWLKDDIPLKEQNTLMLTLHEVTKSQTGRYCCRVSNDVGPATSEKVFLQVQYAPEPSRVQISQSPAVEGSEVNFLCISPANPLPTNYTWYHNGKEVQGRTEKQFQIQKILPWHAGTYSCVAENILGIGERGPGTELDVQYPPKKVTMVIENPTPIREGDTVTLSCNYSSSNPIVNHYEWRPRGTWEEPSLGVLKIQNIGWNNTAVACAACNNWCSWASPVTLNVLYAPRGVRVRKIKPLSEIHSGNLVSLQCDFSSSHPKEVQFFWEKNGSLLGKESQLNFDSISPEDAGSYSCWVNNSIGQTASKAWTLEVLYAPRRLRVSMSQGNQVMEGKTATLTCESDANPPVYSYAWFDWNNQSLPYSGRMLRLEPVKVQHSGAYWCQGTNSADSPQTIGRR
Experimental: as §1
Surface preparation for cyno CD22 protein consisted of amine coupling to Cytiva CM5 chip (Cytiva, Cat #BR100530) using the Cytiva amine coupling kit Type 2 (Cytiva, Cat #BR100633). Following the standard amine coupling protocols, EDC and NHS from the kit were mixed 1:1 and injected over flow cells 1 and 2. […] Any active carboxy groups were then capped with 1M Ethanolamine, pH 8.5 for 420s on flow cells 1 and 2.
as §3

[3] = molecular target: T2, human Siglec-2/CD22 protein (Homo sapiens, UniProt P20273); test: SPR binding affinity to human CD22; conditions: steady-state analysis
T2 construct: purchased Acro Biosystems SI2-H82E3
T2 sequence (P20273 20-847): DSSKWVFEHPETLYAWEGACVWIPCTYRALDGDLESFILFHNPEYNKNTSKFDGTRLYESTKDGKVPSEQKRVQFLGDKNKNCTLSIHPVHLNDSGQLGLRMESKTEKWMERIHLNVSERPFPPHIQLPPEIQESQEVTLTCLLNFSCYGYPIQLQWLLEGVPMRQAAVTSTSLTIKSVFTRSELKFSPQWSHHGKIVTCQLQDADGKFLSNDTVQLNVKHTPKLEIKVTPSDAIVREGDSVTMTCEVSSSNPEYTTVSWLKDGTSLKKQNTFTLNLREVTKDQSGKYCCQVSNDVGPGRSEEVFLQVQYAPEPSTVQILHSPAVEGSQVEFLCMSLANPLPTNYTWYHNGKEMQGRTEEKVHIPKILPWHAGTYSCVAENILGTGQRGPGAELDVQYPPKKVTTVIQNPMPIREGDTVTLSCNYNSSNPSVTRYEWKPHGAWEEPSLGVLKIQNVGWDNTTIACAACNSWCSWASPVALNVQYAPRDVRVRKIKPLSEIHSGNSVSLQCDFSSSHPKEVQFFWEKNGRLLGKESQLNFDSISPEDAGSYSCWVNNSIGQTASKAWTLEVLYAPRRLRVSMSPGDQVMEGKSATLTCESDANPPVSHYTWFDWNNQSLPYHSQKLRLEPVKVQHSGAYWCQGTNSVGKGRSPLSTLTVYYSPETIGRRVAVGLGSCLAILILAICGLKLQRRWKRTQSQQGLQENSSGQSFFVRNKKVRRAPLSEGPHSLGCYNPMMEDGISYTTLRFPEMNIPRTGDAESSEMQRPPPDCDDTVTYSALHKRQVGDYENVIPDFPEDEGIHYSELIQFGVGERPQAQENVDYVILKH
Experimental: as §1, §2, §3

SMILES	Kd [1] [µM]	Kd [2] [µM]	Kd [3] [µM]
CC(=O)NCCOCCOCCOCCOCCC(=O)NCCCCCCO[C@]1(C(=O)O)C[C@H](O)[C@@H](NC(=O)CO)[C@H]([C@H](O)[C@H](O)CNC(=O)Cc2ccc(C(F)F)cc2)O1 [Cpd. 256, (2R,4S,5R,6R)-6-((1R,2R)-3-(2-(4-(difluoromethyl)phenyl)acetamido)-1,2-dihydroxypropyl)-2-((2,18-dioxo-6,9,12,15-tetraoxa-3,19-diazapentacosan-25-yl)oxy)-4-hydroxy-5-(2-hydroxyacetamido) tetrahydro-2H-pyran-2-carboxylic acid]	1 to 10	< 1	< 1
C#CCOCCCCCCO[C@]1(C(=O)O)C[C@H](O)[C@@H](NC(=O)NCCO)[C@H]([C@H](O)[C@H](O)CNC(=O)Cc2ccc(Cl)cc2)O1 [Compound 185, (2R,4S,5R,6R)-6-((1R,2R)-3-(2-(4-chlorophenyl)acetamido)-1,2-dihydroxypropyl)-4-hydroxy-5-(3-(2-hydroxyethyl)ureido)-2-((6-(prop-2-yn-1-yloxy)hexyl)oxy)tetrahydro-2H-pyran-2-carboxylic acid]	1 to 10	< 1	1 to 10
C#CCOCCCCCCO[C@]1(C(=O)O)C[C@H](O)[C@@H](NC(=O)CO)[C@H]([C@H](O)[C@H](O)CNC(=O)Cc2ccc(Cl)c(F)c2)O1 [Compound 130, (2R,4S,5R,6R)-6-((1R,2R)-3-(2-(4-chloro-3-fluorophenyl)acetamido)-1,2-dihydroxypropyl)-4-hydroxy-5-(2-hydroxyacetamido)-2-((6-(prop-2-yn-1-yloxy)hexyl)oxy)tetrahydro-2H-pyran-2-carboxylic acid]	1 to 10	< 1	< 1
C#CCOCCCCCCO[C@]1(C(=O)O)C[C@H](O)[C@@H](NC(N)=O)[C@H]([C@H](O)[C@H](O)CNC(=O)Cc2ccc(Cl)cc2)O1 [Cpd. 86, (2R,4S,5R,6R)-6-((1R,2R)-3-(2-(4-chlorophenyl)acetamido)-1,2-dihydroxypropyl)-4-hydroxy-2-((6-(prop-2-yn-1-yloxy)hexyl)oxy)-5-ureidotetrahydro-2H-pyran-2-carboxylic acid]	< 1	1 to 10	< 1
C#CCCOc1ccc(CO[C@]2(C(=O)O)C[C@H](O)[C@@H](NC(=O)CO)[C@H]([C@H](O)[C@H](O)CNC(=O)Cc3ccccc3N3CCOCC3)O2)cc1 [Compound 138, (2R,4S,5R,6R)-2-((4-(but-3-yn-1-yloxy)benzyl)oxy)-6-((1R,2R)-1,2-dihydroxy-3-(2-(2-morpholinophenyl)acetamido)propyl)-4-hydroxy-5-(2-hydroxyacetamido)tetrahydro-2H-pyran-2-carboxylic acid]	1 to 10	< 1	1 to 10
C#CCOCCOCCO[C@]1(C(=O)O)C[C@H](O)[C@@H](NC(C)=O)[C@H]([C@H](O)[C@H](O)CNCc2cccc(Oc3ccccc3)c2)O1 [Compound 17, (2R,4S,5R,6R)-5-acetamido-6-((1R,2R)-1,2-dihydroxy-3-((3-phenoxybenzyl)amino)propyl)-4-hydroxy-2-(2-(2-(prop-2-yn-1-yloxy)ethoxy)ethoxy)tetrahydro-2H-pyran-2-carboxylic acid]	> 10		< 1

Continued, values first:

Kd [1] [µM]	Kd [2] [µM]	Kd [3] [µM]	SMILES
1 to 10	1 to 10	1 to 10	C#CCOCCOCCO[C@]1(C(=O)O)C[C@H](O)[C@@H](NC(=O)CO)[C@H]([C@H](O)[C@H](O)CNC(=O)Cc2ccc(-c3cccc(C(=O)NC)c3)cc2)O1 [Compound 80, (2R,4S,5R,6R)-6-((1R,2R)-1,2-dihydroxy-3-(2-(3′-(methylcarbamoyl)-[1,1′-biphenyl]-4-yl)acetamido)propyl)-4-hydroxy-5-(2-hydroxyacetamido)-2-(2-(2-(prop-2-yn-1-yloxy)ethoxy)ethoxy)tetrahydro-2H-pyran-2-carboxylic acid]
1 to 10	< 1	< 1	C#CCOCCCCCCO[C@]1(C(=O)O)C[C@H](O)[C@@H](NC(=O)C(=O)Nc2ccccc2)[C@H]([C@H](O)[C@H](O)CNC(=O)Cc2ccc(Cl)cc2)O1 [Compound 188, (2R,4S,5R,6R)-6-((1R,2R)-3-(2-(4-chlorophenyl)acetamido)-1,2-dihydroxypropyl)-4-hydroxy-5-(2-oxo-2-(phenylamino)acetamido)-2-((6-(prop-2-yn-1-yloxy)hexyl)oxy)tetrahydro-2H-pyran-2-carboxylic acid]
> 10	1 to 10	< 1	C#CCOCCOCCO[C@]1(C(=O)O)C[C@H](O)[C@@H](NC(=O)CO)[C@H]([C@H](O)[C@H](O)CNC(=O)Cc2cccc(-c3ccccc3)c2)O1 [Compound 33, (2R,4S,5R,6R)-6-((1R,2R)-3-(2-([1,1′-biphenyl]-3-yl)acetamido)-1,2-dihydroxypropyl)-4-hydroxy-5-(2-hydroxyacetamido)-2-(2-(2-(prop-2-yn-1-yloxy)ethoxy)ethoxy)tetrahydro-2H-pyran-2-carboxylic acid]
1 to 10	< 1	< 1	C#CCOCCCCCCO[C@]1(C(=O)O)C[C@H](O)[C@@H](NC(=O)CO)[C@H]([C@H](O)[C@H](O)CNC(=O)Cc2ccc3[nH]ccc3c2)O1 [Compound 6, (2R,4S,5R,6R)-6-((1R,2R)-3-(2-(1H-indol-5-yl)acetamido)-1,2-dihydroxypropyl)-4-hydroxy-5-(2-hydroxyacetamido)-2-((6-(prop-2-yn-1-yloxy)hexyl)oxy)tetrahydro-2H-pyran-2-carboxylic acid]
	> 10	1 to 10	C#CCOCCOCCO[C@]1(C(=O)O)C[C@H](O)[C@@H](NC(=O)CO)[C@H]([C@H](O)[C@H](O)CNC(=O)Cc2ccc(-c3ccncc3)cc2)O1 [Compound 72, (2R,4S,5R,6R)-6-((1R,2R)-1,2-dihydroxy-3-(2-(4-(pyridin-4-yl)phenyl)acetamido)propyl)-4-hydroxy-5-(2-hydroxyacetamido)-2-(2-(2-(prop-2-yn-1-yloxy)ethoxy)ethoxy)tetrahydro-2H-pyran-2-carboxylic acid]
	> 10	1 to 10	C#CCOCCOCCO[C@]1(C(=O)O)C[C@H](O)[C@@H](NC(=O)CO)[C@H]([C@H](O)[C@H](O)CNC(=O)Cc2ccc3c(c2)NC(=O)C3)O1 [Compound 12, (2R,4S,5R,6R)-6-((1R,2R)-1,2-dihydroxy-3-(2-(2-oxoindolin-6-yl)acetamido)propyl)-4-hydroxy-5-(2-hydroxyacetamido)-2-(2-(2-(prop-2-yn-1-yloxy)ethoxy)ethoxy)tetrahydro-2H-pyran-2-carboxylic acid]
